The structures appear in SMILES notation. Bounds are passed on as bounds.

As a reminder, the melting point is the temperature of the solid-liquid transition. Molecule `COc1c(NC(=O)c2ccc(C)c(-n3cc(C(=O)O)nn3)c2)cc(C(C)(C)C)cc1NS(C)(=O)=O` displayed a melting point of 222 to 224 °C.

For the molecule `CC(O)c1sccc1S(=O)(=O)N(C)c1cccc2cc(-c3nccs3)[nH]c12` (stereo unspecified), the melting point came out at 193 °C.

Consider `CCCCCCCCOC1(OC(=O)C2CCCO2)C=CC(c2ccccc2)=CC1` (stereo unspecified), for which the melting point is 119 °C.

In turn, `CC(=O)NCC[C@@H]1CCc2ccc3nn(C)c(Br)c3c21` gave a melting point of 167 to 169 °C.

Molecule `CCOC(=O)C=Cc1cc(OCc2ccccc2)ccc1-c1ccc(-c2cccnc2)c(C=O)c1` gave a melting point of 126 to 128 °C.

In turn, `COC(=O)c1ncncc1OC` gave a melting point of 75 °C.

For the molecule `CCCOCc1nc(C(C)(C)O)c(C(=O)O)n1Cc1ccc(-c2ccccc2-c2nnn[nH]2)cc1`, the melting point was 166 to 168 °C.

Molecule `COc1nc2ccc(Cl)cc2nc1Cl` showed a melting point of 113 to 114 °C.

The molecule `CC(C)(C)OC(=O)Nc1cc(-c2nnc(CCc3cccc(C(F)(F)F)c3)o2)ccn1` came in with a melting point of 256 to 257 °C.

The molecule `Cc1onc(-c2ccccc2)c1COc1ccc(-c2cc(O)c(SCCc3ccccc3)c(=O)o2)cc1` displayed a melting point of 126 to 128 °C.

With `O=c1[nH]cnc2c(Br)sc(Br)c12`, the melting point was more than 250 °C.

`O=C(O)c1ccc(CNC(=O)C2Cc3ccccc3N2S(=O)(=O)c2ccc(-c3ccc(F)cc3F)cc2)cc1` (stereo unspecified) gave a melting point of 115 °C.

As for `CNC(=O)OC(Cn1cncn1)c1ccc(Cl)cc1Cl` (stereo unspecified), the melting point worked out at 204 °C.

On to `O=C(Nc1nc(Cc2ccccc2)c(C(=O)c2sc(NC(=O)Oc3ccccc3)nc2Cc2ccccc2)s1)Oc1ccccc1`, for which the melting point is more than 285 °C.

`C[C@]1(COc2ccc(N3CCC(Nc4ccc(Cl)c(Cl)c4)CC3)cc2)Cn2cc([N+](=O)[O-])nc2O1`: the melting point lay within 146 to 147 °C.

In turn, `CCN1c2ncc(CC(=O)c3ccncc3)cc2C(=O)N(C)c2ccc(Cl)nc21` showed a melting point of 154 °C.

Molecule `Nc1ccc(-c2noc(-c3cnc4ccc(-c5ccc(C(F)(F)F)cc5)cn34)n2)cn1` gave a melting point of 258 °C.

`CC(=NO)c1nc(N)nc(N)c1-c1ccc(Cl)cc1` returned a melting point of 256 to 259 °C.

`CC(O)CN(C)c1nnc2c3ccc(Cl)cc3c(-c3ccccc3)nn12` (stereo unspecified) returned a melting point of 236 to 238 °C.

Regarding `OCc1ccc2c(c1)C1(c3ccccc3-2)c2ccccc2-c2ccc(CO)cc21`, the melting point was 254 to 255 °C.

In turn, `COc1cc(OCCN2CCCC2)cc(-c2nc3cc(OC)cc(OC)c3c(=O)[nH]2)c1` came in with a melting point of 159 to 160 °C.

`Cc1cc(N)nc(N)n1` yielded a melting point of 183 °C.

Regarding `Cc1ccccc1-c1c(C(=O)O)oc2ccc(Cl)cc12`, the melting point was in the range of 212 to 214 °C.

Molecule `O=C(Nc1ncnc2c1ncn2C1OC(CO)C(O)C1O)c1ccccc1` (stereo unspecified) registered a melting point of 151 to 153 °C.

As for `COc1ccc(C(=O)Nc2ccccc2)cc1NCc1ccc(O)c([N+](=O)[O-])c1`, the melting point was in the range of 175 to 176 °C.

In turn, `CCCS(=O)(=O)c1cc(C(C)C)c(C#N)cc1C(C)C` yielded a melting point of 113 to 115 °C.

For `COc1ccc(C)cc1NC(=O)Nc1ccc(N2CCN(C(=O)Nc3ccc(CCO)cc3C)CC2)cc1`, the melting point is 119 to 121 °C.

Consider `O=[N+]([O-])c1ccc(Cl)c(C(=S)Nc2ccc(Oc3ncc(C(F)(F)F)cc3Cl)cc2)c1`, for which the melting point was in the range of 186 to 187 °C.

Regarding `C[C@@H](n1cncn1)[C@](O)(Cn1cncn1)c1ccccc1F`, the melting point lay in the range of 105 to 106 °C.

Take `N#Cc1c(Cl)ccc([N+](=O)[O-])c1N`: the melting point was 181 to 184 °C.

With `COC(=O)c1[nH]c(=O)[nH]c(=O)c1[N+](=O)[O-]`, the melting point fell in the range of 229 to 230 °C.

`CC(C)c1ccc(CCCN(C)[C@H]2CC[C@H](c3ccc4[nH]c(=O)oc4c3)CC2)cc1` displayed a melting point of 179 to 181 °C.

On to `O=C(Nc1ccc(C(=O)O)cc1)OCc1cn(-c2cc3cc(C(=O)O)c(=O)[nH]c3cc2[N+](=O)[O-])cn1`, for which the melting point is more than 300 °C.

`CCOC(=O)CS(=O)(=O)c1ccc(C=C(C)c2ccc3c(c2)C(C)(C)CCC3(C)C)cc1` yielded a melting point of 117 to 118 °C.

`O=S1(=O)c2cccc3cccc(c23)N1CCN1CCC(Cc2cc3cc(F)ccc3[nH]2)CC1` had a melting point of 154 °C.

Molecule `Cc1nnn(Cc2cc(-c3ncco3)ccc2-c2ccccc2S(=O)(=O)Nc2onc(C)c2C)n1` came in with a melting point of 168 to 174 °C.

For the molecule `COc1ccc(-c2c3cccc(C(F)(F)F)c3nn2C2CCC2)c(OC)c1`, the melting point lay within 51 to 52 °C.

`C=C(C)C(=O)OC(COc1ccc(C(=O)c2ccccc2)c(O)c1)COc1ccc(C(=O)c2ccccc2)c(O)c1` displayed a melting point of 138 to 139 °C.

For the molecule `Cn1c(C(F)(F)F)ccc(-c2c(F)cc(Cl)c3oc(CBr)cc23)c1=O`, the melting point was in the range of 142 to 144 °C.

Consider `CCOC(=O)Cn1c(=O)[nH]c2ccc(Cl)cc2c1=O`, for which the melting point fell in the range of 214 to 215 °C.

The molecule `COc1ccc(C2=NN(C3CCN(C(=O)[C@H](C)N)CC3)C(=O)[C@@H]3CC=CC[C@H]23)cc1OC` registered a melting point of 101 to 103 °C.

`CCOC(=O)CC(=O)c1ccc(OCc2ccccc2)cc1C` gave a melting point of 59 to 60 °C.

With `CN(c1cccc2cc(-c3ncc(CCC(=O)N4CCOCC4)s3)[nH]c12)S(=O)(=O)c1cccs1`, the melting point fell in the range of 160 to 161 °C.

Turning to `CCOC(=O)C1=C(Cl)C(OCC)=NS1(=O)=O`, the melting point lay in the range of 134 to 136 °C.

The molecule `CC(=O)OC1=C(C=O)C=C2OCCC2C1` (stereo unspecified) yielded a melting point of 68 to 70 °C.

With `NS(=O)(=O)c1ccc(-c2cnn(CC=C(F)F)c(=O)c2-c2ccc(F)cc2)cc1`, the melting point lay within 191 to 194 °C.

With `CC(=O)OCCc1ccc(-c2ccc(=O)[nH]n2)cc1`, the melting point worked out at 186 °C.

Consider `CCc1[nH]n(C2CCCC2)c2nc(-c3ccccc3OC)nc(=O)c1-2`, for which the melting point was in the range of 135 to 136 °C.

With `CCOCc1nc2c(N)nc3ccccc3c2n1CC1CC(C)=NO1` (stereo unspecified), the melting point was in the range of 204 to 205 °C.

In turn, `Cc1nc(Cl)cc(-c2ccc(F)cc2)n1` yielded a melting point of 95 to 98 °C.

Turning to `CCOC(=O)C=Cc1ccc(O)c(Br)c1`, the melting point was in the range of 112 to 113 °C.

In turn, `CCCC(=O)OCC(CO)CCn1cnc2cnc(N)nc21` (stereo unspecified) had a melting point of 125 to 127 °C.

The molecule `CNc1cc(Oc2ccc(Cl)cc2Cn2cncn2)ccc1[N+](=O)[O-]` yielded a melting point of 150 °C.

`CCOC(=O)N(c1ccc(Cl)cc1)c1ccccc1N=NC(NC(=O)CCl)(C(=O)OCC)C(=O)OCC` yielded a melting point of 80 to 85 °C.

`COc1cc(Nc2nccc(-c3sc(-c4cccnc4)nc3C)n2)cc(OC)c1`: the melting point lay in the range of 229 to 230 °C.

In turn, `CCOCc1nc2c(N)nc3cc(OCCCn4cccc4)ccc3c2n1CC(C)C` showed a melting point of 160 to 162 °C.

Regarding `O=C1CCC(N2Cc3c(OCc4ccc(CN5CCC(F)(F)CC5)cc4)cccc3C2=O)C(=O)N1` (stereo unspecified), the melting point fell in the range of 193 to 195 °C.

Consider `O=C(OCc1ccc(Cl)cc1)c1ncccc1OCc1ccc(Cl)cc1`, for which the melting point was 92 to 94 °C.

As to `CC(C)(CCCC(=O)O)c1ccc(O)cc1`, the melting point was in the range of 94 to 96 °C.

Turning to `CC(=O)C(C)(O)C1(C)OC(C)=CC1=O` (stereo unspecified), the melting point lay in the range of 95 to 96 °C.

In turn, `CC1(C)OC(c2ccc(S(N)(=O)=O)cc2)=C(c2cc3ccccc3o2)C1=O` came in with a melting point of 143 to 145 °C.

As to `Cc1cccc(NC(=O)NC2N=C(c3ccccc3F)c3ccccc3N(CCC3OCCO3)C2=O)c1` (racemic), the melting point was in the range of 214 to 215 °C.

`C=Cc1c(NC(=O)c2cn(C)nc2C(F)(F)F)cccc1C(C)(C)C` yielded a melting point of 118 to 119 °C.

Turning to `Nc1nc2ccccc2c2c1ncn2CCOCC#Cc1nccs1`, the melting point was in the range of 157 to 159 °C.

As for `O=C(O)COc1ccc(C2=CC(=O)CCC2)c(Cl)c1Cl`, the melting point lay within 197 to 198 °C.

`CCc1c(C)oc(-c2ccc(S(C)(=O)=O)cc2)c(Oc2ccc(F)cc2F)c1=O`: the melting point is 173 °C.

With `CN(C)S(=O)(=O)C(Br)(Br)Sc1ccccc1`, the melting point was in the range of 128 to 129 °C.

The molecule `COCc1c(C(=O)OCCO)ncc2[nH]c3ccc(OCc4ccccc4)cc3c12` returned a melting point of 165 to 167 °C.

In turn, `COc1ncncc1C1c2ccccc2OCOc2cc(F)ccc21` (stereo unspecified) had a melting point of 144 to 148 °C.

In turn, `CCOC(=O)C(Cc1ccc(F)cc1)C(=O)c1ccc(C(F)(F)F)cc1` (stereo unspecified) had a melting point of 52 to 53 °C.

`COc1ccc2[nH]cc(C3CCN(CCCCN4C(=O)c5ccccc5C4=O)CC3)c2c1` yielded a melting point of 155 °C.

Turning to `CN(C)CC1=NC(O)(CCl)CS1` (stereo unspecified), the melting point fell in the range of 90 to 92 °C.

`Nc1ccc(-c2ccc(N)c([N+](=O)[O-])c2)cc1[N+](=O)[O-]` displayed a melting point of 275 °C.

On to `CC1c2cc(Cl)ccc2-c2ccc(Cl)cc21`, for which the melting point fell in the range of 110 to 112 °C.

With `Clc1ccc(Nc2nnc(Cc3ccncc3)c3ccccc23)cc1Cl`, the melting point was 249 to 250 °C.

Turning to `COc1ccc(-c2csc(Nc3cccc4ccccc34)n2)cc1OC`, the melting point lay in the range of 244 to 246 °C.

Consider `Oc1ccc2c(c1)COc1c-2cc2ccc(O)cc2c1-c1ccncc1`, for which the melting point was more than 250 °C.

Turning to `OCc1ccn(-c2ccc(OC(F)(F)F)cc2)n1`, the melting point is 53 to 54 °C.

`CC1Sc2c(C(=O)O)c(=O)c3cc(F)c(N4CCNC(=O)C4)cc3n21` (stereo unspecified): the melting point fell in the range of 198 to 200 °C.

As to `Cc1oc(-c2ccccc2)nc1COc1ccc(CCCC2OC(=O)NC2=O)cc1O` (stereo unspecified), the melting point fell in the range of 162 to 164 °C.

`Cc1ccc(C)n1CCNC(=O)CN1CCCC1=O` came in with a melting point of 109 to 111 °C.

As for `Cc1cc(C)c2c(c1O)C(=O)C(C)(Cc1ccccc1)C2` (stereo unspecified), the melting point was in the range of 86 to 87 °C.

`COc1cc(OC)c(CNCCc2ccc(O)cc2)cc1O`: the melting point lay within 170 to 173 °C.

For the molecule `CCOC(=O)C1=C(C)N(C)C(C)=C(C(=O)OC(C)C)C1c1cccc([N+](=O)[O-])c1` (stereo unspecified), the melting point was in the range of 100 to 101 °C.

`COc1ccc(N2CCOCC2)c2sc(NC(=O)N3CC4CC[C@@](C)(C3)C4(C)C)nc12`: the melting point fell in the range of 185 to 189 °C.

`N#CC1(N)CCSCC1` came in with a melting point of 51 to 52 °C.

The values are drawn from a melting point compilation (Tetko et al.; mined from patent text by program, amines drawn as free bases though some values may be those of a salt).
